Values joined by “and” are separate entries in the source; they are usually repeats but may differ in a detail not shown here. Identical values can stand only once. No end group written: not given here. *: point of attachment. FITC = O=C1OC2(c3ccc(O)cc3Oc3cc(O)ccc32)c2ccc(NC(=S)*)cc21
Experiments:
[1] = tested on: P. berghei (Pb) salivary gland sporozoites; assay type: cell-based, P. berghei ANKA; details: for killing of GFP-expressing Pb sporozoites (in words): 3-9 independent experiments
Experimental: (§1) To assess the cytotoxic effect of the different peptides on sporozoites, we performed an in vitro assay as previously described. Briefly, sporozoites were incubated at 37 °C for 45 min with different peptides in the presence of 10% fetal calf serum (FCS). Samples were next, incubated for 10 min with 5 µg/mL propidium iodide (PI, Invitrogen, WA, USA) on ice and either imaged in an inverted Axio Observer Z.1 microscope (Zeiss, Oberkochen, Germany) and analyzed using Fiji or diluted 10 times with cold PBS before acquisition on a CytoFLEX S flow cytometer (Beckman Coulter, Brea, CA, USA). For the Pf cytotoxic assay, a final concentration of 0.5 µM cytochalasin D (Sigma-Aldrich) was used in some conditions. Viability was defined as the percentage of GFP+PI- sporozoites to the sum of GFP+PI-, GFP+PI+, and GFP-PI+ sporozoites. Data were analyzed using the CytExpert 2.0 software (Beckman Coulter).
(§2) To evaluate the killing of plasmodial sporozoites by membrane-active molecules, we tested the activity of cationic amphipathic α-helical peptides listed in Figure 1 on P. berghei (Pb), P. yoelii (Py), and P. falciparum (Pf) salivary gland sporozoites in vitro. Quantification of sporozoite death was measured by flow cytometry based on the uptake of propidium iodide (PI), a live cell impermeant nucleic acid fluorescent dye, and/or by the loss of parasite fluorescence following 45 min incubation at 37 °C in PBS 10% fetal calf serum (FCS).

[2] = tested on: P. falciparum (Pf) salivary gland sporozoites; assay: Sporozoite cytotoxicity assay (PI uptake), with or without cytochalasin D; assay type: cell-based; details: 45 min, 37 °C; for killing of Pf sporozoites (in words): 20 µM peptide, PBS 10% FCS
Experimental: as §1, §2

[3] = tested on: CD4+ T cells susceptible to HIV infection; details: cited from earlier work
Description: (§3) We next tested the killing activity of a series of cationic amphipathic peptides consisting of penetratin (Figure 1, RK16), a cell-penetrating peptide (CPP) derived from the Drosophila melanogaster homeotic protein antennapedia a-helix 3 [25], fused with peptides derived from the a-helix 18 of the antiapoptosis clone 11 (AAC11) also known as Apoptosis Inhibitor 5 protein [26] (Figure 1, RL37, RT39, and RT53).

cancer cells = details: cited from earlier work
Description: as §3

human cells = details: cited from earlier work
Description: Conversely, RT53, which combines the sequences of two basic amphipathic helical peptides (Figure 1B), one capable of translocating into cells and the other containing a heptad leucine repeat domain, which acts as a protein–protein interaction domain [32, 39], was able to kill Pb and Pf sporozoites.

Pb sporozoites = assay: Dynamic microscopy and gliding motility assay of sporozoites; assay type: cell-based, P. berghei ANKA
Experimental: To visualize the killing of the sporozoites by the peptide, Pb sporozoites expressing mCherry were incubated with 20 μM of RT39 and RT39-FITC. First, 5000 sporozoites were activated in 10% FCS/PBS on an 18-well slide (iBidi, Gräfelfing, Germany). After 5 min, the peptide was added with 1 μM of To-Pro 3 and the sporozoites were immediately recorded for 15–30 min using a spinning-disk confocal system (UltraView ERS, PerkinElmer, Shelton, CT, USA) controlled by Volocity (PerkinElmer), composed of 4 Diode Pumped Solid State Lasers, a Yokogawa Confocal Scanner Unit CSU22, a z-axis piezoelectric actuator, and a Hamamatsu Orca-Flash 4.0 camera mounted on a Axiovert 200 microscope (Zeiss). Time-lapses were analyzed using Fiji.
To assess gliding motility, 5000 sporozoites were resuspended in 10% FCS/PBS in a final volume of 10 µL. The resulting suspension was transferred to an 18-well slide (iBidi) and centrifuged at 400× g for 3 min at 4 °C. The slide was then allowed to equilibrate at 37 °C, 5% CO2 for 3 min in the incubation chamber (Incubation System S, Zeiss) of an inverted epifluorescence wide-field microscope (AxioObserver Z.1, Zeiss) equipped with a LED illumination system (Colibri2, Zeiss), a CCD camera (AxioCam MR, Zeiss), and controlled by the AxioVision software (version 4.8.2.0, Zeiss). After 3 min, a time-lapse movie at a rate of one image per second was recorded for 2 min to control for initial parasite motility. After the 2 min recording, 10 µL of PBS or 20 µM of RT39 were added on top, and the parasites were immediately imaged for 20 min. The average sporozoite velocity at different time points was determined using the MTrack2 plug-in from Fiji.
RT39 induced a fast killing of Pb sporozoites in comparison with anti-CSP antibody as measured by flow cytometry. While 20 µM of the cytotoxic peptide killed most parasites before 5 min of incubation, 10 µg/mL of cytotoxic antibody needed more than 20 min to eliminate the majority of sporozoites (Figure 3A). To better understand the way RT39 is acting on Pb sporozoites, we dynamically imaged the cytotoxic effect of the peptide on fluorescent sporozoites in the presence of To-Pro 3, a live-cell impermeant far-red fluorescent nucleic acid dye. Given its fast-killing kinetics, RT39 was added to a microscopy chamber containing PBS 10% FCS and sporozoites, which were immediately recorded for 20 min at 37 °C. In the presence of FCS, most sporozoites move in a circular way in a substrate-dependent manner. Sporozoite death was assessed by the incorporation of To-Pro 3 and/or by the loss of cytoplasmic fluorescence. Following the addition of RT39 to sporozoites, a lag phase of around 5 min was observed, probably corresponding to the diffusion and peptide binding to sporozoites, after which parasites started to die in quick succession (Figure 3B).

[4] = tested on: P. berghei (Pb) salivary gland sporozoites; assay type: cell-based, P. berghei ANKA; details: 20 µM peptide, 37 °C, flow cytometry, n = 2
[5] = tested on: Escherichia coli DH5α (Ec); assay: E. coli viability, CFU quantification after incubation with cecropin B; assay type: cell-based; details: 2 µM cecropin B, 10 min, 37 °C, 10% FCS/PBS, CFU normalised to control; 3-4 independent experiments
Experimental: Escherichia coli DH5α (Ec) were grown at 37 °C under agitation in LB medium at an OD620 of approximately 0.35 (corresponding to 10^8 CFU/mL). After centrifugation and washing with PBS, the equivalent of 10^7 colony-forming units (CFUs)/mL were incubated at 37 °C for 10 min with or without Cecropin B (Sigma-Aldrich) in 10%FCS/PBS at concentrations ranging from 2 to 100 μM. The suspensions of bacteria were diluted 1000× in PBS and 50 µL were spread on LB-agar plates for CFU quantification. Viability was assessed by normalizing the number of CFU to the control group. A sample of E. coli heated at 70 °C for 10 min was used as a death control.
Cecropin B is a prototypical antimicrobial peptide (AMP, Figure 1) discovered in the hemolymph of the Cecropia moth. […] Since our sporozoite killing assay contains 10% FCS, which can inhibit the antimicrobial activity of several AMPs, we first tested the antimicrobial activity of cecropin B in the presence of 10% FCS.

[6] = tested on: P. yoelii (Py) salivary gland sporozoites; assay: Sporozoite cytotoxicity assay (PI uptake / loss of fluorescence); assay type: cell-based, P. yoelii 17XNL; details: 100 µM, 45 min incubation, 10% FCS/PBS; 3-4 independent experiments
Experimental: as §1, with “Viability was defined as the percentage of GFP+PI- sporozoites to the sum of GFP+PI-, GFP+PI+, and GFP-PI+ sporozoites.” left out
as §2

P. knowlesi oocysts = details: in vivo, at concentrations that start to be toxic to mosquitoes; cited from earlier work
P. cynomolgi oocysts = details: in vivo, at concentrations that start to be toxic to mosquitoes; cited from earlier work
Pf oocysts = details: in vivo, at concentrations that start to be toxic to mosquitoes; cited from earlier work
[7] = tested on: P. gallinaceum sporozoites; details: 250 µM; cited from earlier work
Experimental: Many natural antimicrobial peptides (AMPs), such as magainin, cecropin, and defensins, can kill oocysts from different plasmodial species when injected or over-expressed in the insect hemolymph. However, avian-infecting P. gallinaceum sporozoites are resistant to incubation with 250 µM of the AMPs metalnikowin, thanatin, drosocin, and metchnikowin. […] Yet, despite rendering mosquitoes susceptible to Gram-positive bacterial challenge, the k ...

[8] = 20 µM peptide, 45 min, 37 °C, 10% FCS/PBS, flow cytometry

RQIKIWFQNRRMKWKK [RK16, cell-penetrating peptide derived from the Drosophila melanogaster homeotic protein antennapedia a-helix 3, reference compound]
killing of GFP-expressing Pb sporozoites (in words) [1, 8]: did not significantly kill

RQIKIWFQNRRMKWKKAKLNAEKLKDFKIRLQYFARGLQVYIRQLRLALQGKT [RT53]
Pb sporozoites killed [1, 8]: around 50%
killing of GFP-expressing Pb sporozoites (in words) [1, 8]: able to kill
killing of Pf sporozoites (in words) [2]: able to kill
cell death of CD4+ T cells susceptible to HIV infection [3]: elicit the cell death
cell death of cancer cells (cancer cells): elicit the cell death
incubation time at which membrane permeabilization plateaus (human cells): 60 min
membrane permeabilization activity compared with RT39 (human cells): equivalent or higher

RQIKIWFQNRRMKWKKKDFKIRLQYFARGLQVYIRQL [RL37, penetratin fused with a peptide derived from the a-helix 18 of AAC11]
killing of GFP-expressing Pb sporozoites (in words) [1, 8]: did not significantly kill

RQIKIWFQNRRMKWKKLQYFAAGLQVYIRQLRLALQGGKT [RT39M]
Pb sporozoite death compared with RT39 ([1]; 2, 10, 40, 80 μM, 45 min, 37 °C, flow cytometry, n = 3): strongly decreased

RQIKIWFQNRRMKWKKLQYFARGLQVYIRQLRLALQGGKT [RT39, penetratin fused with shorter AAC11 a-helix 18 peptide]
lethality to Pb sporozoites compared with cytotoxic anti-CSP antibody ([1]; 20 µM peptide vs 10 µg/mL anti-PbCSP (3D11), 45 min, 37 °C): as lethal as or more than
lethality to Pf sporozoites compared with cytotoxic anti-CSP antibody ([2]; 20 µM peptide vs cytotoxic anti-CSP antibody): as lethal as or more than
killing of Pf sporozoites (in words) [2]: stronger killing activity than RT53
time of sudden stop in motility with To-Pro 3 entry and mCherry leakage (Pb sporozoites; 20 µM RT39, exemplified dying sporozoite): ~ 450 s
effect on sporozoite motility (speed) before permeabilization (Pb sporozoites; 20 µM RT39, two-minute analysis of speed at end of lag phase or beginning of death plateau, 2-3 independent experiments): did not significantly impact sporozoite motility
lag phase before parasites start to die (Pb sporozoites; 20 µM RT39 added to sporozoites in PBS 10% FCS, 37 °C, recorded 20 min, microscopy): around 5 min
incubation time at which most Pb sporozoites are killed [4]: < 5 min and 5 min
cell death of CD4+ T cells susceptible to HIV infection [3]: elicit the cell death
cell death of cancer cells (cancer cells): elicit the cell death

cecropin B: cationic amphipathic antimicrobial insect peptide from Hyalophora cecropia, purchased from Sigma-Aldrich (KWKVFKKIEKMGRNIRNGIVKAGPAIAVLGEAKAL; ends and bridges not checked; UniProt P01508 27-61, looked up)
killing of E. coli [5]: efficiently kill
killing of Pb sporozoites ([1]; 100 µM, 45 min incubation, 10% FCS/PBS, 3-4 independent experiments): did not significantly kill
killing of Py sporozoites [6]: did not significantly kill
development of P. knowlesi oocysts (P. knowlesi oocysts): inhibit the development
development of P. cynomolgi oocysts (P. cynomolgi oocysts): inhibit the development
development of Pf oocysts (Pf oocysts): inhibit the development

drosocin
susceptibility of P. gallinaceum sporozoites to incubation [7]: resistant

metchnikowin
susceptibility of P. gallinaceum sporozoites to incubation [7]: resistant

thanatin
susceptibility of P. gallinaceum sporozoites to incubation [7]: resistant

{FITC}-RQIKIWFQNRRMKWKKLQYFARGLQVYIRQLRLALQGGKT [RT39-FITC, FITC-labeled RT39]
Ratio MFI SPZ/Bk of live parasites (Pb sporozoites; 20 µM RT39-FITC in solution, spinning-disk microscopy, 1 μM To-Pro 3, 10% FCS/PBS): ~ 1
site of membrane permeabilization on the sporozoite body (Pb sporozoites; 20 μM RT39-FITC, 1 μM To-Pro 3, n = 34 sporozoites from 2 independent experiments): frequently occurred at the posterior part of the sporozoite body
